Experiments:
[1] = taken orally in pill form or capsule form; cited from earlier work
[2] = Recrystallization of melatonin on cooling in food-grade solvents; format: physicochemical; conditions: dissolved by heating then cooled
Description: During research of the dissolvable strip 100, several food-grade solvents were identified having a sufficient solubility of melatonin including glycerin, ethanol, oleic acid, and propylene glycol. When heated, each of these solvents is capable of dissolving crystalized melatonin. […] Whereas, as noted above, glycerin incorporates well into the strip 100 at levels up to about 2% to 5%, is compatible with the lipid shell 124, and prevents recrystallization of the melatonin contained by the lipid shell 124.

[3] = cited from earlier work
[4] = Dissolution of melatonin in liquid glycerin; format: physicochemical; conditions: at least 250 mg melatonin per milliliter glycerin
Description: At block 304, the method 300 includes combining melatonin with liquid glycerin, which is also termed glycerol and/or glycerine. The melatonin may be dry and/or powered, and is typically in a crystalized state. As noted above, in an exemplary embodiment, at least 250 mg of melatonin is added per milliliter of glycerin.
Next, at block 308 of the method 300, the melatonin and glycerin mixture is heated to approximately 76.6° C. (170° F.). Moreover, in some embodiments, the melatonin and glycerin mixture is stirred during the heating process.
As shown in block 404, first the method 400 includes mixing melatonin with liquid glycerin. The melatonin may be dry and/or powered, and is typically in a crystalized state. As noted above, in an exemplary embodiment, at least 250 mg of melatonin is added per milliliter of glycerin.
Next, at block 408 of the method 400, the melatonin and glycerin mixture is heated to approximately 76.6° C. (170° F.). Moreover, in some embodiments, the melatonin and glycerin mixture is stirred during the heating process.

CYP1A2 = biological target: T1, CYP1A2 (Homo sapiens, UniProt P05177); conditions: in vivo; cited from earlier work
T1 sequence (P05177 1-516): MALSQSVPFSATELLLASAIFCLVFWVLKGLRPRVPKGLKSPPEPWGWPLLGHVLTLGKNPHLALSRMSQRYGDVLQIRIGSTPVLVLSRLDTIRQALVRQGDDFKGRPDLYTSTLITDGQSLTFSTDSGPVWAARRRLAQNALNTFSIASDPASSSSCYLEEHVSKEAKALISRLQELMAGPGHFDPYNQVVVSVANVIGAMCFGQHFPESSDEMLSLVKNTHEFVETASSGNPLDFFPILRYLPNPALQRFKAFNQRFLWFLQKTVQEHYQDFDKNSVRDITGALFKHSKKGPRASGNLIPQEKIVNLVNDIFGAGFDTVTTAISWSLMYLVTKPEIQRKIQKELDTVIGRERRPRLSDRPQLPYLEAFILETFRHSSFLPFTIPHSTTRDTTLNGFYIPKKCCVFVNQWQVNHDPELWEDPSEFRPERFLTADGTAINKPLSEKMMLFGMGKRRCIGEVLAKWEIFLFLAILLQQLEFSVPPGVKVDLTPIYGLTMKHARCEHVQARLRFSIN

Compound	fraction absorbed into the body [1]	recrystallization of melatonin when cooled ([2]; solvent ethanol)	recrystallization of melatonin when cooled ([2]; solvent liquid glycerin)	recrystallization of melatonin when cooled ([2]; solvent oleic acid)	recrystallization of melatonin when cooled ([2]; solvent propylene glycol)	solubility in water [3]	dissolution of melatonin in glycerin ([4]; heated to approximately 76.6° C. and stirred)	dissolution of melatonin in glycerin ([4]; room temperature (25° C.))	melatonin in the blood removed during each pass through the liver (CYP1A2)	melatonin removed from the bloodstream by liver and kidneys (CYP1A2)
COc1ccc2[nH]cc(CCNC(C)=O)c2c1 [non-solubilized melatonin]	about 15%	–	–	–	–	–	–	–	–	–
COc1ccc2[nH]cc(CCNC(C)=O)c2c1 [melatonin, N-acetyl-5-methoxy tryptamine]	–	recrystallized	recrystallized in each of the solvents except for the liquid glycerin	recrystallized	recrystallized	only slightly soluble in water	all of the melatonin dissolves	only a portion of the melatonin dissolves	30%-50%	30-50%
